In assay [1] the test system is T-cell. Nature of the assay: IL-2 secretion from T-cells stimulated with anti-CD3 antibody alone (Biological Example 2). The note with it: Homo sapiens, T-cell; 1 μM Cbl-b inhibitor; fold change over baseline (anti-CD3/anti-CD28 stimulated T-cells without inhibitor); read-out: IL-2 secretion Anti-CD3 stimulation. The format is cell-based, human.
Assay [2] concerns the target T1, Cbl-b (Homo sapiens, UniProt Q13191). Kind of assay: Cbl-b inhibition assay (Cbl-b activity assay, FRET, Biological Example 1; 100 mM NaCl, 60 nM Src kinase). Conditions: upper bound stated in text lists; read-out: IC50 values in the Cbl-b inhibition assay of Biological Example 1. The format is biochemical. The method, boiled down: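 Steps: Src kinase phosphorylates N-terminal biotinylated Avi-tagged Cbl-b; phosphorylated Cbl-b binds Bodipy-fluorescein ubiquitin-loaded UbcH5B; streptavidin-terbium on Cbl-b sits close to the fluorescein label, producing FRET. Inhibitors block UbcH5B-Ub binding.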

The test system of assay [3] is T-cell. Kind of assay: IL-2 secretion from T-cells co-stimulated with anti-CD3 and anti-CD28 antibody (Biological Example 2). The format is cell-based, human. Conditions: Homo sapiens, T-cell, fold change over baseline (anti-CD3/anti-CD28 stimulated T-cells without inhibitor), read-out: IL-2 secretion Anti-CD3/Anti-CD28 stimulation; for fold induction at 0.3 µM: 0.3 μM Cbl-b inhibitor; for fold induction at 1 µM: 1 μM Cbl-b inhibitor. The method, boiled down: (§1)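 Values are fold-change over baseline: readings (IL-2 release, CD25 staining) from inhibitor-treated T-cells divided against untreated cells […]. No detailed procedure stated.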

Assay [4] deals with T-cell. Nature of the assay: CD25 cell surface staining on T-cells co-stimulated with anti-CD3 and anti-CD28 antibody (Biological Example 2). The format is cell-based, human. The note with it: Homo sapiens, T-cell, fold change over baseline (anti-CD3/anti-CD28 stimulated T-cells without inhibitor), read-out: CD25 staining Anti-CD3/Anti-CD28 stimulation; for fold induction at 0.3 µM: 0.3 μM Cbl-b inhibitor; for fold induction at 1 µM: 1 μM Cbl-b inhibitor. The method, boiled down:
as §1

The target in assay [5] is T1, Cbl-b. Kind of assay: Cbl-b activity assay (Cbl-b inhibition assay), TR-FRET of Cbl-b interaction with UbcH5B-Ub. The format is biochemical. Conditions: assay buffer with 100 mM NaCl, 60 nM Src kinase; read-out: Cbl-b activity IC50. In a few lines: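 Compound-treated Cbl-b was incubated 1.5 h with Src kinase (60 nM final; 30 nM for asterisked values, which also used 50 mM instead of 100 mM NaCl), 1 mM ATP and 5 mM MgCl2. Binding to fluorescent Ub-loaded UbcH5B (C85K mutant) was then read by TR-FRET after 1 h more.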

Assay [6] relates to T-cell. Kind of assay: CD25 cell surface staining on T-cells stimulated with anti-CD3 antibody alone (Biological Example 2). The format is cell-based, human. Conditions: Homo sapiens, T-cell; 1 μM Cbl-b inhibitor; fold change over baseline (anti-CD3/anti-CD28 stimulated T-cells without inhibitor); read-out: CD25 staining Anti-CD3 stimulation.

Bounds are passed on as bounds.

T1 sequence (Q13191 36-427): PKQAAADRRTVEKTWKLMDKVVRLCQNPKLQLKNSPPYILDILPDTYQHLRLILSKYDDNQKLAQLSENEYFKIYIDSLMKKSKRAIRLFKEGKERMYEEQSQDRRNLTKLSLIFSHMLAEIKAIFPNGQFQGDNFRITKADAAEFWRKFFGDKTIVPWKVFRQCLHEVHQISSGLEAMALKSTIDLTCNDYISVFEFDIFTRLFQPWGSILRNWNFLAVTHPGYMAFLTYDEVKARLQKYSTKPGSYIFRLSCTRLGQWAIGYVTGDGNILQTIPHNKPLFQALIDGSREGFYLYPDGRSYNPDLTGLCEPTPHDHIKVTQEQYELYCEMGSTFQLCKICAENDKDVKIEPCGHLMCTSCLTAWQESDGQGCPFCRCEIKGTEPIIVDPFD

As to `CN1C[C@H]2C[C@@H]1CN2c1cc2c(c(C(F)(F)F)c1)CN(c1cccc(C3(Cc4nncn4C)COC3)c1)C2=O` [Example 569, 2-(3-(3-((4-Methyl-4H-1,2,4-triazol-3-yl)methyl)oxetan-3-yl)phenyl)-6-((1R,4R)-5-methyl-2,5-diazabicyclo[2.2.1]heptan-2-yl)-4-(trifluoromethyl)isoindolin-1-one], the fold induction at 1 µM in the assay with T-cell [1] was more than 0.201; in the assay on T-cell [3] it was more than 7.5; in the assay with T-cell [4], 1.31 to 1.5; in the assay with T-cell [6] it was more than 1. For the same compound, the results for the IC50 at Cbl-b [2] and on Cbl-b [5] were not above 100 nM and less than 100 nM, respectively. In addition, the fold induction at 0.3 µM was more than 7.5 in the assay with T-cell [3] and 1.31 to 1.5 in the assay on T-cell [4].
In the case of `C[C@@H](c1cc2c(c(C(F)(F)F)c1)CN(c1cccc(C3(C(F)(F)c4nncn4C)COC3)c1)C2=O)N1CC[C@H](F)C1` [Example 570, 2-(3-(3-(Difluoro(4-methyl-4H-1,2,4-triazol-3-yl)methyl)oxetan-3-yl)phenyl)-6-((S)-1-((S)-3-fluoropyrrolidin-1-yl)ethyl)-4-(trifluoromethyl)isoindolin-1-one], the fold induction at 1 µM in the assay on T-cell [1] was more than 0.201; in the assay with T-cell [3] it was more than 7.5; in the assay on T-cell [4], 1.51 to 1.75; with T-cell [6], more than 1. Further, the IC50 was not above 100 nM on Cbl-b [2] and less than 100 nM at Cbl-b [5]. Besides, the fold induction at 0.3 µM in the assay with T-cell [3] fell in the range of 2.51 to 5; in the assay on T-cell [4], 1.31 to 1.5.
As to `CN1CC2CC(C1)N2c1cc(C(=O)Nc2cccc(C3(Cc4nncn4C)COC3)c2)nc(C2CC2)n1` [Example 572, 2-Cyclopropyl-N-(3-(3-((4-methyl-4H-1,2,4-triazol-3-yl)methyl)oxetan-3-yl)phenyl)-6-(3-methyl-3,6-diazabicyclo[3.1.1]heptan-6-yl)pyrimidine-4-carboxamide], the fold induction at 1 µM with T-cell [1] was more than 0.201; in the assay with T-cell [3], more than 7.5; in the assay on T-cell [4], 1.31 to 1.5; with T-cell [6], more than 1. The half-maximal inhibitory concentration (IC50) was not above 100 nM at Cbl-b [2] and less than 100 nM on Cbl-b [5]. Moreover, the fold induction at 0.3 µM in the assay with T-cell [3] is more than 7.5; in the assay with T-cell [4], 1.31 to 1.5.
For `CN1C[C@H]2CC[C@@H](C1)N2c1cc(C(=O)Nc2cccc(C3(Cc4nncn4C)COC3)c2)nc(C2CC2)n1` [Example 573, 2-Cyclopropyl-N-(3-(3-((4-methyl-4H-1,2,4-triazol-3-yl)methyl)oxetan-3-yl)phenyl)-6-((1R,5S)-3-methyl-3,8-diazabicyclo[3.2.1]octan-8-yl)pyrimidine-4-carboxamide], the fold induction at 1 µM with T-cell [1] is more than 0.201; with T-cell [3], more than 7.5; in the assay on T-cell [4] it was 1.51 to 1.75; in the assay on T-cell [6], more than 1. The IC50 at Cbl-b [2] was not above 100 nM; at Cbl-b [5] it was less than 100 nM. Moreover, the fold induction at 0.3 µM in the assay on T-cell [3] is 5 to 7.5; in the assay with T-cell [4], 1.31 to 1.5.
As for `Cn1cnnc1CC1(c2cccc(NC(=O)c3cc(CN4CC[C@H](F)C4)nc(C4CC4)n3)c2)COC1` [Example 574, (S)-2-Cyclopropyl-6-((3-fluoropyrrolidin-1-yl)methyl)-N-(3-(3-((4-methyl-4H-1,2,4-triazol-3-yl)methyl)oxetan-3-yl)phenyl)pyrimidine-4-carboxamide], the fold induction at 1 µM in the assay with T-cell [1] is more than 0.201; in the assay on T-cell [3], more than 7.5; in the assay with T-cell [4], 1.51 to 1.75; in the assay with T-cell [6], more than 1. Further, the IC50 on Cbl-b [2] was not above 100 nM; at Cbl-b [5], less than 100 nM. Besides, the fold induction at 0.3 µM in the assay on T-cell [3] is more than 7.5; with T-cell [4], 1.51 to 1.75.
For `Cn1cnnc1CC1(c2cccc(N3Cc4c(ccc(F)c4C4CC4)C3=O)c2)COC1` [Example 577, 4-Cyclopropyl-5-fluoro-2-(3-(3-((4-methyl-4H-1,2,4-triazol-3-yl)methyl)oxetan-3-yl)phenyl)isoindolin-1-one], the fold induction at 1 µM was 0.051 to 0.1 with T-cell [1], 1.01 to 2.5 with T-cell [3], 1.01 to 1.3 in the assay on T-cell [4] and 0.601 to 0.8 in the assay with T-cell [6]. Besides, the IC50 at Cbl-b [2] is not above 300 nM; at Cbl-b [5], 100 to 300 nM. In addition, the fold induction at 0.3 µM in the assay on T-cell [3] fell in the range of 1.01 to 2.5; with T-cell [4] it was 1.01 to 1.3.
Take `Cn1cnnc1CC1(c2cccc(N3Cc4c(cc(CN5CC[C@H](F)C5)nc4C4CC4)C3=O)c2)COC1` [Example 578, (S)-4-cyclopropyl-6-((3-fluoropyrrolidin-1-yl)methyl)-2-(3-(3-((4-methyl-4H-1,2,4-triazol-3-yl)methyl)oxetan-3-yl)phenyl)-2,3-dihydro-1H-pyrrolo[3,4-c]pyridin-1-one]: the fold induction at 1 µM with T-cell [1] was 0.051 to 0.1; in the assay with T-cell [3], 5 to 7.5; with T-cell [4] it was 1.01 to 1.3; with T-cell [6], 0.801 to 1. The concentration for half-maximal inhibition (IC50) was not above 100 nM on Cbl-b [2] and less than 100 nM at Cbl-b [5]. The fold induction at 0.3 µM with T-cell [3] fell in the range of 2.51 to 5; in the assay with T-cell [4], 1.01 to 1.3.
In the case of `Cn1cnnc1CC1(c2cccc(N3Cc4c(cc(CN5CCCC5)nc4C4CC4)C3=O)c2)COC1` [Example 579, 4-Cyclopropyl-2-(3-(3-((4-methyl-4H-1,2,4-triazol-3-yl)methyl)oxetan-3-yl)phenyl)-6-(pyrrolidin-1-ylmethyl)-2,3-dihydro-1H-pyrrolo[3,4-c]pyridin-1-one], the fold induction at 1 µM was less than 0.05 in the assay with T-cell [1], 2.51 to 5 with T-cell [3], 1.01 to 1.3 with T-cell [4] and less than 0.6 in the assay with T-cell [6]. Also, the concentration for half-maximal inhibition (IC50) on Cbl-b [2] is not above 100 nM; at Cbl-b [5] it was less than 100 nM. For the same compound, the fold induction at 0.3 µM is 1.01 to 2.5 in the assay on T-cell [3] and 1.01 to 1.3 in the assay with T-cell [4].
As for `Cn1cnnc1CC1(c2cccc(N3Cc4c(cc(C(N5CCCC5)C(F)(F)F)cc4C(F)(F)F)C3=O)c2)COC1` (centres unmarked) [Example 581, 2-(3-(3-((4-Methyl-4H-1,2,4-triazol-3-yl)methyl)oxetan-3-yl)phenyl)-6-(2,2,2-trifluoro-1-(pyrrolidin-1-yl)ethyl)-4-(trifluoromethyl)isoindolin-1-one], the fold induction at 1 µM in the assay with T-cell [1] was 0.051 to 0.1; in the assay with T-cell [3] it was 2.51 to 5; in the assay on T-cell [4], 1.31 to 1.5; in the assay on T-cell [6], 0.801 to 1. The IC50 on Cbl-b [2] is not above 100 nM; on Cbl-b [5] it was less than 100 nM. Besides, the fold induction at 0.3 µM lay within 1.01 to 2.5 in the assay on T-cell [3] and 1.01 to 1.3 in the assay on T-cell [4].
With `Cn1cnnc1CC1(c2cccc(N3Cc4c(cc(N5CCNC6(CC6)C5)cc4C(F)(F)F)C3=O)c2)COC1` [Example 582, 2-(3-(3-((4-Methyl-4H-1,2,4-triazol-3-yl)methyl)oxetan-3-yl)phenyl)-6-(4,7-diazaspiro[2.5]octan-7-yl)-4-(trifluoromethyl)isoindolin-1-one], the fold induction at 1 µM in the assay with T-cell [1] was 0.101 to 0.15; in the assay with T-cell [3] it was more than 7.5; in the assay on T-cell [4], 1.31 to 1.5; in the assay on T-cell [6], more than 1. The IC50 is not above 100 nM at Cbl-b [2] and less than 100 nM at Cbl-b [5]. The fold induction at 0.3 µM was more than 7.5 in the assay on T-cell [3] and 1.31 to 1.5 in the assay on T-cell [4].

For the origin of these results see patent US20220324835A1 (Nurix Therapeutics, Inc., priority 2018, published 2022).
